{"source": "patent US8686165B2", "about": "“Process for preparation of taxane derivatives” (Emcure Pharmaceuticals Limited, priority 2009, dated 2014)", "key": {"[1]": {"assay": "Comparative stability profile of docetaxel in solution at 35° C. with and without aluminum sulphate", "format": "physicochemical"}, "[2]": {"assay": "Comparative stability profile of docetaxel in solution at 35° C. with and without aluminum sulphate", "format": "physicochemical", "conditions": "for Epi-Docetaxel / Docetaxel: solution at 35° C., trihydrate; for Epi-Docetaxel: 360 min (6 hours); for Docetaxel: 360 min", "description": "The docetaxel solution prepared according to present invention had 0.19% of epi-docetaxel after 6 hours."}, "[3]": {"format": "physicochemical", "conditions": "25 ± 2° C./60 ± 5% RH"}}, "note": "Counter-ions that a name gives are not always drawn. Like-named read-outs stand apart in the source and are kept apart here.", "data": [{"compound": "CC(=O)O[C@@]12CO[C@@H]1C[C@H](O)[C@@]1(C)C(=O)[C@H](O)C3=C(C)[C@@H](OC(=O)[C@H](O)[C@@H](NC(=O)OC(C)(C)C)c4ccccc4)C[C@@](O)([C@@H](OC(=O)c4ccccc4)[C@H]21)C3(C)C.O.O.O", "note": "[Example 1, Docetaxel trihydrate]", "values": [{"measurement": "Docetaxel", "setting": "[1]; 30 min, trihydrate", "result": 99.62, "unit": "%"}, {"measurement": "Epi-Docetaxel", "setting": "[1]; 30 min, trihydrate", "result": 0.11, "unit": "%"}, {"measurement": "Docetaxel", "setting": "[1]; 60 min, trihydrate", "result": 99.50, "unit": "%"}, {"measurement": "Epi-Docetaxel", "setting": "[1]; 60 min, trihydrate", "result": 0.12, "unit": "%"}, {"measurement": "Epi-Docetaxel", "setting": "[1]; 360 min (6 hours), listed as docetaxel solution prepared according to present invention, trihydrate", "result": 0.19, "unit": "%"}, {"measurement": "Docetaxel", "setting": "[1]; Initial", "result": 99.68, "unit": "%"}, {"measurement": "Epi-Docetaxel", "setting": "[1]; Initial", "result": 0.11, "unit": "%"}, {"measurement": "reduction in formation of the epi-isomer degradation product", "setting": "[2]; compared to a solution prepared without addition of a metal salt", "result": "almost a five-fold reduction"}, {"measurement": "Epi-Docetaxel", "setting": "[2]", "result": 0.19, "unit": "%"}, {"measurement": "Docetaxel", "setting": "[2]", "result": 99.38, "unit": "%"}]}, {"compound": "CC(=O)O[C@@]12CO[C@@H]1C[C@H](O)[C@@]1(C)C(=O)[C@H](O)C3=C(C)[C@@H](OC(=O)[C@H](O)[C@@H](NC(=O)OC(C)(C)C)c4ccccc4)C[C@@](O)([C@@H](OC(=O)c4ccccc4)[C@H]21)C3(C)C.O.O.O", "note": "[Example 2, Docetaxel trihydrate]", "values": [{"measurement": "7-Epi-docetaxel", "setting": "[3]; 1 Month", "result": 0.022, "unit": "%"}, {"measurement": "10-Deacetyl baccatin III", "setting": "[3]; 1 Month", "result": 0.01, "unit": "%"}, {"measurement": "Any individual unspecified unidentified impurity", "setting": "[3]; 1 Month", "result": 0.076, "unit": "%"}, {"measurement": "Total impurities", "setting": "[3]; 1 Month, listed as docetaxel preparing by a process of the present invention, trihydrate", "result": 0.27, "unit": "%"}, {"measurement": "Total impurities", "setting": "[3]; 1 Month, trihydrate", "result": 0.27, "unit": "%"}, {"measurement": "7-Epi-docetaxel", "setting": "[3]; 2 Month", "result": 0.044, "unit": "%"}, {"measurement": "10-Deacetyl baccatin III", "setting": "[3]; 2 Month", "result": 0.01, "unit": "%"}, {"measurement": "Any individual unspecified unidentified impurity", "setting": "[3]; 2 Month", "result": 0.083, "unit": "%"}, {"measurement": "Total impurities", "setting": "[3]; 2 Month", "result": 0.27, "unit": "%"}, {"measurement": "7-Epi-docetaxel", "setting": "[3]; Initial", "result": 0.02, "unit": "%"}, {"measurement": "Any individual unspecified unidentified impurity", "setting": "[3]; Initial", "result": 0.07, "unit": "%"}, {"measurement": "Total impurities", "setting": "[3]; Initial", "result": 0.25, "unit": "%"}]}, {"compound": "CC(=O)O[C@@]12CO[C@@H]1C[C@H](O)[C@@]1(C)C(=O)[C@H](O)C3=C(C)[C@@H](OC(=O)[C@H](O)[C@@H](NC(=O)OC(C)(C)C)c4ccccc4)C[C@@](O)([C@@H](OC(=O)c4ccccc4)[C@H]21)C3(C)C.O.O.O", "note": "[Example 6, Docetaxel trihydrate]", "values": [{"measurement": "Docetaxel", "setting": "[1]; 30 min, trihydrate", "result": 99.51, "unit": "%"}, {"measurement": "Epi-Docetaxel", "setting": "[1]; 30 min, trihydrate", "result": 0.23, "unit": "%"}, {"measurement": "Docetaxel", "setting": "[1]; 60 min, trihydrate", "result": 98.95, "unit": "%"}, {"measurement": "Epi-Docetaxel", "setting": "[1]; 60 min, trihydrate", "result": 0.34, "unit": "%"}, {"measurement": "Epi-Docetaxel", "setting": "[1]; 360 min (6 hours), listed as docetaxel solution prepared without using aluminum sulfate, trihydrate", "result": 0.86, "unit": "%"}, {"measurement": "Docetaxel", "setting": "[1]; Initial", "result": 99.68, "unit": "%"}, {"measurement": "Epi-Docetaxel", "setting": "[1]; Initial", "result": 0.11, "unit": "%"}, {"measurement": "Epi-Docetaxel", "setting": "[2]", "result": 0.86, "unit": "%"}, {"measurement": "Docetaxel", "setting": "[2]", "result": 98.81, "unit": "%"}]}, {"compound": "CC(=O)O[C@@]12CO[C@@H]1C[C@H](O)[C@@]1(C)C(=O)[C@H](O)C3=C(C)[C@@H](OC(=O)[C@H](O)[C@@H](NC(=O)OC(C)(C)C)c4ccccc4)C[C@@](O)([C@@H](OC(=O)c4ccccc4)[C@H]21)C3(C)C", "note": "[Without potassium aluminum sulfate, docetaxel]", "values": [{"measurement": "7-Epi-10-deacetyl baccatin III", "setting": "[3]; 1 Month", "result": 0.08, "unit": "%"}, {"measurement": "7-Epi-10-oxo-10-deacetyl baccatin III", "setting": "[3]; 1 Month", "result": 0.01, "unit": "%"}, {"measurement": "7-Epi-10-oxo-Docetaxel", "setting": "[3]; 1 Month", "result": 0.01, "unit": "%"}, {"measurement": "7-Epi-docetaxel", "setting": "[3]; 1 Month", "result": 0.18, "unit": "%"}, {"measurement": "10-Deacetyl baccatin III", "setting": "[3]; 1 Month", "result": 0.07, "unit": "%"}, {"measurement": "Any individual unspecified unidentified impurity", "setting": "[3]; 1 Month", "result": 0.07, "unit": "%"}, {"measurement": "Total impurities", "setting": "[3]; 1 Month", "result": 0.58, "unit": "%"}, {"measurement": "Total impurities", "setting": "[3]; 1 Month, listed as docetaxel prepared without using potassium aluminum sulfate", "result": 0.58, "unit": "%"}]}]}
